The numbers were not newly measured in patent US20030022813A1, “Treating pain by targeting hyperpolarization-activated, cyclic nucleotide-gated channels” (priority 2001, published 2003), which cites them from elsewhere.

The test system of this data set is Ih. The conditions noted are these: applied intracellularly at 5 or 10 mM; cited from earlier work.

For the compound `CC[N+](CC)(CC)CC(=O)Nc1c(C)cccc1C` [QX-314], the “block of Ih” value is listed as “blocks Ih”.
